Patent EP0655065B1, “27-HYDROXYRAPAMYCIN AND DERIVATIVES THEREOF” (AMERICAN HOME PRODUCTS CORPORATION, priority 1992, dated 1994)
Where “and” joins values, the source holds several entries; their conditions need not be identical. Equal entries are not always repeated. Where two headings read alike, the source gives them in different places.

Experiments:
[1] = test system: cells from the thymus of normal BALB/c mice; experiment: comitogen-induced thymocyte proliferation procedure (LAF); format: cell-based; settings: for IC50: read-out: L A F (IC50)
Protocol: The comitogen-induced thymocyte proliferation procedure (LAF) was used as an in vitro measure of the immunosuppressive effects of representative compounds. Briefly, cells from the thymus of normal BALB/c mice are cultured for 72 hours with PHA and IL-1 and pulsed with tritiated thymidine during the last six hours. Cells are cultured with and without various concentrations of rapamycin, cyclosporin A, or test compound. Cells are harvested and incorporated radioactivity is determined. Inhibition of lymphoproliferation is assessed as percent change in counts per minute from non-drug treated controls. The results are expressed as an IC50.

[2] = half life (stability) in 0.1 M phosphate buffer; format: physicochemical; settings: for half-life: 0.1 m phosphate buffer, pH 7.4
Description: The 27-hydroxyrapamycin derivatives of formulas II - X are also expected to resist ring degredative reactions better than rapamycin and 31- and/or 42- substituted rapamycin derivatives of rapamycin.

[3] = test system: pinch skin graft from male DBA/2 donors transplanted to male BALB/c recipients; experiment: pinch skin graft survival time; format: in vivo; settings: mean graft survival time, intraperitoneally
Protocol: A representative compound of this invention was also evaluated in an in vivo test procedure designed to determine the survival time of pinch skin graft from male DBA/2 donors transplanted to male BALB/c recipients. […] Briefly, a pinch skin graft from the donor is grafted on the dorsum of the recipient as a homograft, and an autograft is used as control in the same region. The recipients are treated with either varying concentrations of cyclosporin A as test control or the test compound, intraperitoneally. Untreated recipients serve as rejection control. The graft is monitored daily and observations are recorded until the graft becomes dry and forms a blackened scab. This is considered as the rejection day. The mean graft survival time (number of days ± S.D.) of the drug treatment group is compared with the control group.

27-Hydroxyrapamycin
IC50 ([1]; thymocytes cultured 72 hours with PHA and IL-1, tritiated thymidine incorporation): 3.7 nM
half life ([2]; 0.1 M phosphate buffer (pH 7.4, 37° C)): 17.5 h
Skin Graft (days + SD) ([3]; dose of 4 mg/kg, 4 mg/kg): 8.5 ± 1.2 days and 8.17 ± 0.75 days and 8.00 ± 0.63 days
Skin Graft (days + SD) ([3]; dose of 16 mg/kg, 16 mg/kg): 9.17 ± 0.98^+ days and 9.17 ± 0.75^+ days

CO[C@H]1C[C@@H]2CC[C@@H](C)[C@@](O)(O2)C(=O)C(=O)N2CCCC[C@H]2C(=O)O[C@H]([C@H](C)C[C@@H]2CC[C@@H](O)[C@H](OC)C2)CC(OC(C)=O)[C@H](C)/C=C(\C)[C@@H](O)[C@@H](OC)C(=O)[C@H](C)C[C@H](C)/C=C/C=C/C=C/1C (some centres unmarked) [Example 5, 27-Hydroxyrapamycin-27-ester with acetic acid]
inhibition at 0.1 µM ([1]; Mus musculus, T-cell, at 0.1 µM): 69%
inhibition at 1 µM ([1]; Mus musculus, T-cell, at 1 µM): 94%
IC50 ([1]; Mus musculus, Thymocyte, thymocytes cultured 72 hours with PHA and IL-1, tritiated thymidine incorporation): 99 nM
half-life [2]: 34 h

CO[C@H]1C[C@@H]2CC[C@@H](C)[C@@](O)(O2)C(=O)C(=O)N2CCCC[C@H]2C(=O)O[C@H]([C@H](C)C[C@@H]2CC[C@@H](O)[C@H](OC)C2)CC(=O)[C@H](C)/C=C(\C)[C@@H](O)[C@@H](OC)C(=O)[C@H](C)C[C@H](C)/C=C/C=C/C=C/1C [Rapamycin]
IC50 ([1]; Mus musculus, Thymocyte, 72 h): 4.8 nM
half-life [2]: 11.8 h
Skin Graft (days + SD) ([3]; dose of 4 mg/kg): 12.0 ± 1.7 days
